{"source": "patent US11639348B2", "about": "“Compositions and methods for neuraminidase detection and quantification” (priority 2018, dated 2023)", "key": {"[1]": {"experiment": "Spontaneous hydrolysis of stock solution"}, "[2]": {"target": "influenza N2 subtype neuraminidase from A/Hong Kong/1/68 (H3N2) (Influenza A virus, UniProt Q91MA2)", "sequence (Q91MA2 whole entry, looked up)": "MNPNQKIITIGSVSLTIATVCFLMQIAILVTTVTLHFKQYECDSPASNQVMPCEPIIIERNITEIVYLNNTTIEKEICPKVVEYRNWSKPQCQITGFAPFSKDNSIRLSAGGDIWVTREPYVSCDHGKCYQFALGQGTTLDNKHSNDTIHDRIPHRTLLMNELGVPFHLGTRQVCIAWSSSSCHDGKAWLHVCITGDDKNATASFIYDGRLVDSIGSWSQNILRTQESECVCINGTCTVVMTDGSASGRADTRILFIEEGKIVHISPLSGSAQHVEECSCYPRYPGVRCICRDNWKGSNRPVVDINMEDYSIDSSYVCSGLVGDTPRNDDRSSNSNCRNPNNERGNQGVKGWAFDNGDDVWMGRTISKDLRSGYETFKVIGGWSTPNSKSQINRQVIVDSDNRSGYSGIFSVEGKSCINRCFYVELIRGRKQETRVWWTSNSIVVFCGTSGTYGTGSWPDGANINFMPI", "format": "biochemical, influenza A/Hong Kong/1/68 (H3N2)", "conditions": "pH 7.6"}, "[3]": {"target": "sialidase from Micromonospora viridifaciens (NedA) (Micromonospora viridifaciens, UniProt Q02834)", "sequence (Q02834 38-647)": "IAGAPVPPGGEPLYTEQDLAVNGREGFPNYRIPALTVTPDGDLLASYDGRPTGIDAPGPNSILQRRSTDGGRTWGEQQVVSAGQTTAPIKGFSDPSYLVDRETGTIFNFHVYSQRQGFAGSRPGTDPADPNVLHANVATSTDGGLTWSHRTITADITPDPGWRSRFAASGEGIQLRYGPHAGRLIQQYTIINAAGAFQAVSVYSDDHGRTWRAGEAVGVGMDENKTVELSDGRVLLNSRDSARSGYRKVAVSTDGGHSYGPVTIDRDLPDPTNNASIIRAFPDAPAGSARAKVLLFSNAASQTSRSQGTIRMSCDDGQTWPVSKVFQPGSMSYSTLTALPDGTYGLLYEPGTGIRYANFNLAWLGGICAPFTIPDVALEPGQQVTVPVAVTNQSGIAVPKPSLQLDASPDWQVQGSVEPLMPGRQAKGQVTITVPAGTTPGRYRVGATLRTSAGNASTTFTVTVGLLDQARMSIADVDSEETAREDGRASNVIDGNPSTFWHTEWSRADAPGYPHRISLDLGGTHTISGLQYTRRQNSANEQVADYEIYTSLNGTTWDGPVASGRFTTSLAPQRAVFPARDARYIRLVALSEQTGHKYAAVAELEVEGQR", "format": "biochemical"}, "B/Florida/04/2006 NA": {"tested_on": "B/Florida/04/2006 NA", "format": "biochemical, influenza B/Florida/04/2006", "conditions": "pH 7.6"}, "B/Hong Kong/05/1972 NA": {"tested_on": "B/Hong Kong/05/1972 NA", "format": "biochemical, influenza B/Hong Kong/05/1972", "conditions": "pH 7.6"}, "[4]": {"tested_on": "A/Brisbane/59/2007 H1N1 NA", "format": "biochemical, influenza A/Brisbane/59/2007 H1N1", "conditions": "pH 7.6"}, "[5]": {"tested_on": "A/Washington/10/2008 H1N1 NA", "format": "biochemical, influenza A/Washington/10/2008 H1N1", "conditions": "pH 7.6"}, "influenza virus NAs": {"tested_on": "influenza virus NAs", "format": "biochemical"}, "[6]": {"tested_on": "A/California/07/2009 H1N1 NA", "format": "biochemical, influenza A/California/07/2009 H1N1", "conditions": "pH 7.6"}, "[7]": {"target": "NA of A/WS/33 (H1N1) influenza virus (Influenza A virus, UniProt P03470)", "sequence (P03470 whole entry, looked up)": "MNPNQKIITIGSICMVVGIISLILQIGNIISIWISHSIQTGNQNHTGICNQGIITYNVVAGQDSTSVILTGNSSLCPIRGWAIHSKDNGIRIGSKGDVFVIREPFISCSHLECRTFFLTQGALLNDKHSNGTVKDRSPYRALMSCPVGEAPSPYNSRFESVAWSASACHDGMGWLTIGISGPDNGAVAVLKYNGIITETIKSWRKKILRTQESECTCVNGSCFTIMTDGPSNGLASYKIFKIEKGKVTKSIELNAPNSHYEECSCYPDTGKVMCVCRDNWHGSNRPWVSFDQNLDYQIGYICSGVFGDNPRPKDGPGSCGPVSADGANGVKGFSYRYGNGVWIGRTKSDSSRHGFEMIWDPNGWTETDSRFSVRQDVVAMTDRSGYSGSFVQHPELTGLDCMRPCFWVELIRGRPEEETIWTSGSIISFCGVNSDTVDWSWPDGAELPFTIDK", "format": "biochemical, influenza A/WS/33 (H1N1)"}, "influenza B NAs": {"tested_on": "influenza B NAs", "format": "biochemical"}, "NA activity of virus": {"tested_on": "NA activity of virus", "format": "biochemical"}, "[8]": {"tested_on": "CC(=O)NC1C(NC(=N)N)C(F)C(Oc2c(F)cc3c(C)cc(=O)oc3c2F)(C(=O)O)OC1[C@H](O)[C@H](O)CO", "experiment": "purified protein, by the assay type", "conditions": "pH 7.6; 30.0 °C"}}, "note": "“Also recorded” adds a separate entry of the source.", "data": [{"molecule": "CC(=O)NC1C(O)C(F)C(Oc2c(F)cc3c(C)cc(=O)oc3c2F)(C(=O)O)OC1[C@H](O)[C@H](O)CO", "note": "(stereo partly drawn) [compound 1, 5-Acetamido-3-fluoro-3,5-dideoxy-2α-(4-methyl-6,8-difluoromethylumbelli-feryl)-D-glycero-D-galactononulopyranosylnoic Acid]", "values": [{"measurement": "stability of stock solution", "setting": "[1]", "value": "undergoes slow spontaneous hydrolysis"}, {"measurement": "burst and turnover on titration of N2", "setting": "[2]", "value": "a burst was indeed seen, but significant turnover was also observed"}, {"measurement": "NedA concentration down to which burst size vs concentration is linear", "setting": "[3]", "value": "≤ 0.7", "unit": "nM"}, {"measurement": "fluorescence response on titration of NedA (burst and turnover)", "setting": "[3]; pH 7.6", "value": "a classical burst phase of increased fluorescence was observed, followed by a steady-state phase"}]}, {"molecule": "CC(=O)NC1C(N)C(F)C(Oc2c(F)cc3c(C)cc(=O)oc3c2F)(C(=O)O)OC1[C@H](O)[C@H](O)CO", "note": "(stereo partly drawn) [compound 2, 5-Acetamido-4-amino-3-fluoro-3,4,5-trideoxy-2α-(4-methyl-6,8-difluoromethylumbelliferyl)-D-glycero-D-galactononulopyranosylnoic acid]", "values": [{"measurement": "burst and turnover on titration of N2", "setting": "[2]", "value": "produced a burst, but significant turnover was still observed"}]}, {"molecule": "CC(=O)NC1C(NC(=N)N)C(F)C(Oc2c(F)cc3c(C)cc(=O)oc3c2F)(C(=O)O)OC1[C@H](O)[C@H](O)CO", "note": "(stereo partly drawn) [compound 3, 5-Acetamido-4-guanidine-3-fluoro-3,4,5-trideoxy-2α-(4-methyl-6,8-difluoromethylumbelliferyl)-D-glycero-D-galactononulopyranosylnoic acid]", "values": [{"measurement": "Km", "setting": "B/Florida/04/2006 NA", "value": 28.6, "unit": "µM"}, {"measurement": "kcat", "setting": "B/Florida/04/2006 NA", "value": 26.7, "unit": "s⁻¹"}, {"measurement": "Km", "setting": "B/Hong Kong/05/1972 NA", "value": 29.6, "unit": "µM"}, {"measurement": "kcat", "setting": "B/Hong Kong/05/1972 NA", "value": 30.0, "unit": "s⁻¹"}, {"measurement": "burst and turnover on titration of N2", "setting": "[2]", "value": "no detectable turnover at all, while a rapid initial burst was observed"}, {"measurement": "Km", "setting": "[4]", "value": 41.1, "unit": "µM"}, {"measurement": "kcat", "setting": "[4]", "value": 32.6, "unit": "s⁻¹"}, {"measurement": "response on incubation with GH33 sialidase NedA", "setting": "[3]", "value": "no significant response"}, {"measurement": "Km", "setting": "[5]", "value": 62.2, "unit": "µM"}, {"measurement": "kcat", "setting": "[5]", "value": 63.3, "unit": "s⁻¹"}, {"measurement": "time to reach plateau of titration", "setting": "influenza virus NAs", "value": "about 30 min"}, {"measurement": "Km", "setting": "[6]", "value": 31.9, "unit": "µM"}, {"measurement": "kcat", "setting": "[6]", "value": 76.4, "unit": "s⁻¹"}, {"measurement": "NA concentration down to which reliable data are given", "setting": "[7]", "value": "approximately 200 pM"}, {"measurement": "burst, F2Mu released", "setting": "[7]", "value": 27, "unit": "nM"}, {"measurement": "initial concentration of NA in the original virus sample", "setting": "[7]", "value": 1.08, "unit": "µM"}, {"measurement": "time to inactivation", "setting": "influenza B NAs", "value": "within several seconds"}]}, {"molecule": "O=C1CCO1", "note": "[β-propiolactone]", "values": [{"measurement": "effect on NA activity compared to live virus", "setting": "NA activity of virus", "value": "significantly reduced NA activities; also recorded: dramatically reduced NA activities"}]}, {"molecule": "(Influenza A virus (A/Hong Kong/1/1968(H3N2)))", "values": [{"measurement": "Km", "setting": "[8]", "value": 45.6, "unit": "µM"}, {"measurement": "kcat", "setting": "[8]", "value": 76.7, "unit": "s⁻¹"}, {"measurement": "kcat/Km", "setting": "[8]", "value": "1.68e+06", "unit": "M⁻¹ s⁻¹"}]}, {"molecule": "nonyl phenoxypolyethoxylethanol [NP40]", "values": [{"measurement": "effect on NA activity compared to live virus", "setting": "NA activity of virus", "value": "did not affect the NA activity; also recorded: did not affect the NA activities"}]}]}
